Measured values as given in patent US10351575B2, “Bicyclic urea, thiourea, guanidine and cyanoguanidine compounds useful for the treatment of pain” (Array BioPharma Inc., priority 2012, dated 2019).

Legend:
Assay in all cases: KinaseProfiler off-target kinase profiling
Assay type in all cases: biochemical
Conditions in all cases: 10 μM, ATP near Km
[1] = molecular target: Abl-P (Homo sapiens (Human), UniProt P00519)
Outline: (§1)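 Near-Km ATP, 10 μM inhibitor, duplicate wells; output is percent of uninhibited control, averaged.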

[2] = molecular target: BrSK1 (Homo sapiens (Human), UniProt Q8TDC3)
BrSK1, sequence (Q8TDC3 whole entry): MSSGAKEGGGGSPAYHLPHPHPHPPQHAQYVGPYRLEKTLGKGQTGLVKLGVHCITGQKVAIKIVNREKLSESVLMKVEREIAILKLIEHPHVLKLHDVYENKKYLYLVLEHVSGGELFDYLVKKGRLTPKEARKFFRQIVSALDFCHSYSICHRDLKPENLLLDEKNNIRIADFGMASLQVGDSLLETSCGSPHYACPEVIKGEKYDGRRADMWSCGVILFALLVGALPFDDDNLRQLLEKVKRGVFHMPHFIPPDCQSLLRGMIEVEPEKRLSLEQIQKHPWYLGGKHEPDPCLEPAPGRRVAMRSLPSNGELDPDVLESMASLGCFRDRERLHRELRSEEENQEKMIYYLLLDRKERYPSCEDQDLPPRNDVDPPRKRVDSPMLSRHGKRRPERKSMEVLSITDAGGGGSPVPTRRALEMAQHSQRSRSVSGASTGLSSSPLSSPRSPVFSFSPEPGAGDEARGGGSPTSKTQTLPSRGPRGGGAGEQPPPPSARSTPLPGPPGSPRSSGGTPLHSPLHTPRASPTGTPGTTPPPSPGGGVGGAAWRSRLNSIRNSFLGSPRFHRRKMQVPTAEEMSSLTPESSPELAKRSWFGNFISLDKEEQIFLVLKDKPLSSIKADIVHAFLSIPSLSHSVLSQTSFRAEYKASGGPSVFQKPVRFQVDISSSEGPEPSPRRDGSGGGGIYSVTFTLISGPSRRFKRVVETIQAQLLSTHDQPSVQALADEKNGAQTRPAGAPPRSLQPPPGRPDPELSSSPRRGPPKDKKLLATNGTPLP
Outline: as §1

[3] = molecular target: BrSK2 (Homo sapiens (Human), UniProt Q8IWQ3)
Outline: as §1

[4] = molecular target: CAMK1d (Homo sapiens (Human), UniProt Q8IU85)
CAMK1d, sequence (Q8IU85 whole entry): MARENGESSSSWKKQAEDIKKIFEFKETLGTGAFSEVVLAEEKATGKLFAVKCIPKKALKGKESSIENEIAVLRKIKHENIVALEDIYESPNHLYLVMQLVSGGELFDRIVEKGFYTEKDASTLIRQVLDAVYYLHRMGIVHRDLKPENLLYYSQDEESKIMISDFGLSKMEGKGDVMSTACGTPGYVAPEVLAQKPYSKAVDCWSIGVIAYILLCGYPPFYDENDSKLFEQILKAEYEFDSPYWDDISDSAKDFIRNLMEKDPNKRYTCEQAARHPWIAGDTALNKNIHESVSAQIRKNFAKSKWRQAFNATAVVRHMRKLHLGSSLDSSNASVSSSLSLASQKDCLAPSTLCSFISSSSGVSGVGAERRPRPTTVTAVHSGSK
Outline: as §1

[5] = molecular target: CAMK2b (Homo sapiens (Human), UniProt Q13554)
Outline: as §1

[6] = molecular target: CDK2/cyclinA (Homo sapiens (Human), UniProt P24941)
Outline: as §1

[7] = molecular target: EphB3 (Homo sapiens (Human), UniProt P54753)
EphB3, sequence (P54753 34-998): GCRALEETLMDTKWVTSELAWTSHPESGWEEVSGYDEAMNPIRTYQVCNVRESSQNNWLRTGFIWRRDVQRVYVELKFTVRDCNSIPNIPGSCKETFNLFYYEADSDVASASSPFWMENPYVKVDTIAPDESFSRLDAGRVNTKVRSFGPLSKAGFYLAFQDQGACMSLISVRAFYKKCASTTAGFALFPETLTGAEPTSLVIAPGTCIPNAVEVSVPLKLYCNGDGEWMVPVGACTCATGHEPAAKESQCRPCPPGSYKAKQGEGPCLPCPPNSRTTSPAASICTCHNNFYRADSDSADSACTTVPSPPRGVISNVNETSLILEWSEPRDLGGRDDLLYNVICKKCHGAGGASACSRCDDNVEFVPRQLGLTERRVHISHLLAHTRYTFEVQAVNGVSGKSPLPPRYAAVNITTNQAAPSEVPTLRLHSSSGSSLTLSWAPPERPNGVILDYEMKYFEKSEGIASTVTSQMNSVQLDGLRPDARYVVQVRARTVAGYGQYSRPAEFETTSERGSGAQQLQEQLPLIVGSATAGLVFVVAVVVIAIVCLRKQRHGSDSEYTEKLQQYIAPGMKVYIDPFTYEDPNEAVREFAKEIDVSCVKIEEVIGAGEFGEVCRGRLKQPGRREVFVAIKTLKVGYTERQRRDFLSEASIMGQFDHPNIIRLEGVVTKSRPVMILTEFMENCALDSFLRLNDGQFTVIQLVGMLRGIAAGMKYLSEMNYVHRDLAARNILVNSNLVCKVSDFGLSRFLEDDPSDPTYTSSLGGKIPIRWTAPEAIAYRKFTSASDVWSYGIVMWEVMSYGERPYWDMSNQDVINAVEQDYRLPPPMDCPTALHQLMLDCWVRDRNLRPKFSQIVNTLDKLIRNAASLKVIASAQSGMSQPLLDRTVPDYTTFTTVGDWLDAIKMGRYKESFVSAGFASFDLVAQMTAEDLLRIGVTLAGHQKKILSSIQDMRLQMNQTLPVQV
Outline: as §1

[8] = molecular target: FGFR2 (Homo sapiens (Human), UniProt P21802)
Outline: as §1

[9] = molecular target: Fms (Homo sapiens (Human), UniProt P07333)
Fms, sequence (P07333 20-972): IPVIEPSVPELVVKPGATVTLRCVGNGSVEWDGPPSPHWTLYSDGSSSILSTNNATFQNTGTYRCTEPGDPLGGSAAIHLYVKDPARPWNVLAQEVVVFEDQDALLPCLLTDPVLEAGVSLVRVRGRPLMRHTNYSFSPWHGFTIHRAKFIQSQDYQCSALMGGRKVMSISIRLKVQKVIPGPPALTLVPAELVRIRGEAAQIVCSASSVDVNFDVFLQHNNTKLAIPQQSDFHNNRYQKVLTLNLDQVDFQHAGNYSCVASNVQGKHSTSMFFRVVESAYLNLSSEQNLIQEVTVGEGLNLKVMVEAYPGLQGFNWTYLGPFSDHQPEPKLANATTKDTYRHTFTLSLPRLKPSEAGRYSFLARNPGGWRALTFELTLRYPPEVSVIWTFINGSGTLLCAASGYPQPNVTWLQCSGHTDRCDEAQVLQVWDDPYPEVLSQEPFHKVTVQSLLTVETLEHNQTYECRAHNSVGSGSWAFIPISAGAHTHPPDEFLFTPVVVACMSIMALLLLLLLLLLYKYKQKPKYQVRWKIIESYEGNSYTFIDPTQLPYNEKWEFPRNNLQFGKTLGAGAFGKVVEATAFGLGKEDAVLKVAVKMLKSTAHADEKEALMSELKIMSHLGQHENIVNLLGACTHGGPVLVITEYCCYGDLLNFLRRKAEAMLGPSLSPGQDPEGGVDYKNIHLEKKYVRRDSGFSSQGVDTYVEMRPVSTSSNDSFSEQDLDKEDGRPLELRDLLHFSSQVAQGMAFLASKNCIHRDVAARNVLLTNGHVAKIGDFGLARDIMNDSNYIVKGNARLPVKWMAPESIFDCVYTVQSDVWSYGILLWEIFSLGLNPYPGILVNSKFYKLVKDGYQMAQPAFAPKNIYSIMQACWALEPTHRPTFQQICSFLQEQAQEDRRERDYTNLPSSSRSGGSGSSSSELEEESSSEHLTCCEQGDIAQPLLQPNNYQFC
Outline: as §1

[10] = molecular target: GSK3beta (Homo sapiens (Human), UniProt P49841)
Outline: as §1

[11] = molecular target: IGF-1R Activated (Homo sapiens (Human), UniProt P08069)
Outline: as §1

[12] = molecular target: IR (Homo sapiens (Human), UniProt P06213)
Outline: as §1

[13] = molecular target: IRAK1 (Homo sapiens (Human), UniProt P51617)
Outline: as §1

[14] = molecular target: JAK2 (Homo sapiens (Human), UniProt O60674)
Outline: as §1

[15] = molecular target: JNK1alpha1 (Homo sapiens (Human), UniProt P45983)
Outline: as §1

[16] = molecular target: MAPKAP-K3 (Homo sapiens (Human), UniProt Q16644)
Outline: as §1

[17] = molecular target: MARK2 (Homo sapiens (Human), UniProt Q7KZI7)
Outline: as §1

[18] = molecular target: MSK1 (Homo sapiens (Human), UniProt O75582)
Outline: as §1

[19] = molecular target: MST3 (Homo sapiens (Human), UniProt Q9Y6E0)
Outline: as §1

[20] = molecular target: MuSK (Homo sapiens (Human), UniProt O15146)
Outline: as §1

[21] = molecular target: PAK2 (Homo sapiens (Human), UniProt Q13177)
PAK2, sequence (Q13177 whole entry): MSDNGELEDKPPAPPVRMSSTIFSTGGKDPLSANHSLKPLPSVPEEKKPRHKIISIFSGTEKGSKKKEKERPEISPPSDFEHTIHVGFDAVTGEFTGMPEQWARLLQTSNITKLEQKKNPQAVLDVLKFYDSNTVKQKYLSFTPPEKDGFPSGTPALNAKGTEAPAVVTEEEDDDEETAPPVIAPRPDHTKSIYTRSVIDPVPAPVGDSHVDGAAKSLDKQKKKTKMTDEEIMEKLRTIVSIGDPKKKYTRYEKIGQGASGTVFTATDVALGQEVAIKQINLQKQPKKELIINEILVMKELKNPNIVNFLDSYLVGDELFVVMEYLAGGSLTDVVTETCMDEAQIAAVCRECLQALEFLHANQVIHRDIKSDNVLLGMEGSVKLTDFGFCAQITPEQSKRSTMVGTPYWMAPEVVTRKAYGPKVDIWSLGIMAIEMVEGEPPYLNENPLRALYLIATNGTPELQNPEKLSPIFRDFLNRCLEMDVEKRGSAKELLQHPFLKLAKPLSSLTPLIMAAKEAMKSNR
Outline: as §1

[22] = molecular target: PKAC-alpha (Homo sapiens (Human), UniProt P17612)
Outline: as §1

[23] = molecular target: PKCdelta (Homo sapiens (Human), UniProt Q05655)
PKCdelta, sequence (Q05655 whole entry): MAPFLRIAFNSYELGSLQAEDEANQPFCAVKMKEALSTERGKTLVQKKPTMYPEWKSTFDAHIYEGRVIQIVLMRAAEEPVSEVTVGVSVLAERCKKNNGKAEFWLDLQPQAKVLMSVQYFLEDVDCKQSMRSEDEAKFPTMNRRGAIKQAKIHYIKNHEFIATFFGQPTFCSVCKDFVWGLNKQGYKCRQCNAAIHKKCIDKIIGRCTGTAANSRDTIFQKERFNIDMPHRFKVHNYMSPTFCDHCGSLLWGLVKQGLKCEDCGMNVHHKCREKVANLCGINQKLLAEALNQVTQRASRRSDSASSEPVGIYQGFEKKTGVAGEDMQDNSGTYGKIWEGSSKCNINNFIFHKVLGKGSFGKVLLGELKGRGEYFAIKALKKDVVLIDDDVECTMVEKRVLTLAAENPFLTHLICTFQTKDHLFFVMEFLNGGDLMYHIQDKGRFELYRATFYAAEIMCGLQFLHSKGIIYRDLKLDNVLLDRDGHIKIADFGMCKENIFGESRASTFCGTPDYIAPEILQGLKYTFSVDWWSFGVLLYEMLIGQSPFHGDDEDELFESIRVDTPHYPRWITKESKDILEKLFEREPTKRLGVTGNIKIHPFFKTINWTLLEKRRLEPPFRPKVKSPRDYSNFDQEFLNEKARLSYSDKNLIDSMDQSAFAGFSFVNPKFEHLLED
Outline: as §1

[24] = molecular target: PKCeta (Homo sapiens (Human), UniProt P24723)
Outline: as §1

[25] = molecular target: PKCgamma (Homo sapiens (Human), UniProt P05129)
Outline: as §1

[26] = molecular target: PRKG1alpha (Homo sapiens (Human), UniProt Q13976)
Outline: as §1

[27] = molecular target: Ros (Homo sapiens (Human), UniProt P08922)
Outline: as §1

[28] = molecular target: SGK1 (Homo sapiens (Human), UniProt O00141)
Outline: as §1

[29] = molecular target: Tie2 (Homo sapiens (Human), UniProt Q02763)
Outline: as §1

[30] = molecular target: TrkA (Homo sapiens (Human), UniProt P04629)
Outline: as §1

[31] = molecular target: WNK2 (Homo sapiens (Human), UniProt Q9Y3S1)
Outline: as §1

[32] = molecular target: p38alpha (Homo sapiens (Human), UniProt Q16539)
Outline: as §1

[33] = molecular target: p38gamma (Homo sapiens (Human), UniProt P53778)
Outline: as §1

[34] = molecular target: p70S6K (Homo sapiens (Human), UniProt P23443)
Outline: as §1

Row | Compound | Avg. POC [1] [POC] | Avg. POC [2] [POC] | Avg. POC [3] [POC] | Avg. POC [4] [POC] | Avg. POC [5] [POC] | Avg. POC [6] [POC] | Avg. POC [7] [POC] | Avg. POC [8] [POC] | Avg. POC [9] [POC] | Avg. POC [10] [POC] | Avg. POC [11] [POC] | Avg. POC [12] [POC] | Avg. POC [13] [POC] | Avg. POC [14] [POC] | Avg. POC [15] [POC] | Avg. POC [16] [POC] | Avg. POC [17] [POC] | Avg. POC [18] [POC] | Avg. POC [19] [POC] | Avg. POC [20] [POC] | further results
1 | Cc1c(-c2cnn(C)c2)nn(-c2ccccc2)c1NC(=O)N[C@H]1CCCc2ccccc21 [Example 2, (S)-1-(1′,4-dimethyl-1-phenyl-1H,1′H-3,4′-bipyrazol-5-yl)-3-(1,2,3,4-tetrahydronaphthalen-1-yl)urea] | 146.5 | 119 | 139.5 | 127 | 106.5 | 127 | 110 | 112.5 | 82 | 126 | 95 | 44 | 107 | 233 | 94 | 128 | 109 | 113.5 | 120 | 103.5 | Avg. POC [21]: 104 POC; Avg. POC [22]: 138.5 POC; Avg. POC [23]: 95 POC; Avg. POC [24]: 107 POC; Avg. POC [25]: 102 POC; Avg. POC [26]: 127.5 POC; Avg. POC [27]: 106.5 POC; Avg. POC [28]: 150 POC; Avg. POC [29]: 126 POC; Avg. POC [30]: 1.5 POC; Avg. POC [31]: 99 POC; Avg. POC [32]: 102.5 POC; Avg. POC [33]: 115 POC; Avg. POC [34]: 172 POC
2 | Cc1c(-c2cnn(C)c2)nn(-c2ccccc2)c1NC(=O)NC1CCOc2cc(F)ccc21 (centres unmarked) [Example 12, 1-(1′,4-dimethyl-1-phenyl-1H,1′H-[3,4′-bipyrazol]-5-yl)-3-(7-fluorochroman-4-yl)urea] | 135.5 | 111.5 | 147 | 137 | 106 | 112 | 89 | 114 | 91 | 109.5 | 102.5 | 92 | 102.5 | 122.5 | 109.5 | 112 | 105.5 | 127.5 | 131.5 | 98.5 | Avg. POC [21]: 97 POC; Avg. POC [22]: 120.5 POC; Avg. POC [23]: 97.5 POC; Avg. POC [24]: 100 POC; Avg. POC [25]: 104.5 POC; Avg. POC [26]: 89.5 POC; Avg. POC [27]: 97.5 POC; Avg. POC [28]: 129 POC; Avg. POC [29]: 104.5 POC; Avg. POC [30]: −0.5 POC; Avg. POC [31]: 106.5 POC; Avg. POC [32]: 110 POC; Avg. POC [33]: 111 POC; Avg. POC [34]: 124.5 POC
